Data as given in US7335817B2, “Canola line 45H25” (Pioneer Hi-Bred International, Inc., priority 2005, dated 2008).
Entries after “also recorded” stand apart in the source; their conditions may differ.

Test system: Canola Variety 45H25
Assay: Herbicide resistance of canola variety 45H25 at standard recommended application rates
Format: in vivo, Brassica napus
Settings: for Herbicide resistance (Description): response of variety 45H25 to the herbicide, in words; for Herbicide resistance rating (Mean): scale 0 = not tested, 1 = resistant, variety 45H25
Excerpt: When preparing the detailed phenotypic information that follows, plants of the new 45H25 variety were observed while growing using conventional agronomic practices. For comparative purposes canola plants of four publicly available canola lines were similarly grown in a three-replication experiment. Based on observations recorded on various morphological traits for the variety 45H25 and comparative check cultivars, variety 45H25 can be described as follow: […]

CP(=O)(O)CCC(N)C(=O)O (centres unmarked) [Glufosinate]
Herbicide resistance (Description): susceptible | Herbicide resistance rating (Mean) (5 = tolerant, 9 = susceptible): 9.00

O=C(O)CNCP(=O)(O)O [Glyphosate]
Herbicide resistance (Description): resistant | Herbicide resistance (Description) (listed as glyphosate): resistance; also recorded: resistant | Herbicide resistance rating (Mean) (2 = tolerant, 3 = susceptible): 1.00
